Results as given in US20210060119A1, “OXYTOCIN COMPOSITIONS FOR TREATMENT OF TINNITUS” (New York University, priority 2019, published 2021).

Experiment: clinical use of intranasal oxytocin formulations to treat tinnitus (patient reports, Tinnitus Handicap Inventory)
Assay type: in vivo, human
Excerpt: In an aspect, this disclosure provides a method for treating tinnitus. The method comprises administering intranasally to an individual a composition comprising or consisting essentially of oxytocin, wherein such administration results in treatment of tinnitus. The effectiveness of treatment of tinnitus may be monitored by quantifying tinnitus, such as by self-evaluation using clinically accepted techniques. An example is the Tinnitus Handicap Inventory (“THI”), a validated and published measurement technique. (Newman et al., Arch Otolaryngol Head Neck Surg, 1996, February 122(2), 143-8). In an embodiment, the improvement in an individual using THI may comprise an improvement of at least 10%. In various embodiments, the improvement may comprise from 10-100%, such as at least 20, 30, 40, 50, 60, 70, 80, 90, 95, or 99%.
This example describes clinical use of the present formulations to treat tinnitus. […] The formulation contained oxytocin, magnesium chloride, citric acid, and sodium citrate in sterile water. […] The dose was then increased to 45 IU (3 sprays of 15 IU) 4 times daily. […] A thickener was then added to the formulation keeping the oxytocin amount the same. […] Their score on the Tinnitus Handicap Inventory reduced from a pretreatment score of 96 (meaning a catastrophic level) to a current score of 14 (meaning mild or no tinnitus). The patient has remained improved over 1 year since initiating therapy. Their current dose is 22.5 IU in each nostril 4 times daily. Since their tinnitus occurs in distinct cycles, at times when tinnitus severity is loudest, they increase the dose to 5 times daily for 2 days. […] Their current handicap inventory is 8.
The dose was increased to 45 IU 4 times daily resulting in a decrease in tinnitus volume by approximately 30%.
In another patient, who developed constant tinnitus after a neck injury one year ago, a dose of 45 IU (22.5 IU in each nostril) 4 times daily was used for 30 days and is still ongoing. It has provided about 15% improvement.
In another patient with constant tinnitus a dose of 30 IU 4 times daily has been started and treatment is ongoing.

[1] = fifth patient, constant tinnitus, 30 IU 4 times daily, after 2 weeks
[2] = first patient, 22.5 IU in each nostril 4 times daily, 5 times daily for 2 days when loudest, past 3 months

CC[C@H](C)[C@@H]1NC(=O)[C@H](Cc2ccc(O)cc2)NC(=O)[C@@H](N)CSSC[C@@H](C(=O)N2CCC[C@H]2C(=O)N[C@@H](CC(C)C)C(=O)NCC(N)=O)NC(=O)[C@H](CC(N)=O)NC(=O)[C@H](CCC(N)=O)NC1=O [oxytocin, Cys-Tyr-Ile-Gln-Asn-Cys-Pro-Leu-Gly (SEQ ID NO:1)]
time without noticing the tinnitus [1]: several hours per day without noticing the tinnitus | tinnitus intensity [1]: tinnitus intensity has lowered | time patient has remained improved since initiating therapy (first patient): over 1 year | longest time without tinnitus [2]: ≤ 10 days | tinnitus severity [2]: reduced tinnitus severity | current handicap inventory (Tinnitus Handicap Inventory) (first patient, 22.5 IU in each nostril 4 times daily, 5 times daily for 2 days when loudest, pretreatment 96): 8 | score on the Tinnitus Handicap Inventory (first patient, formulation with thickener, pretreatment score 96 (catastrophic level), 14 means mild or no tinnitus): 14 | tinnitus free period (first patient, thickener added, same oxytocin amount (45 IU 4 times daily)): several days of tinnitus free period | improvement (fourth patient, constant tinnitus after neck injury, 45 IU (22.5 IU in each nostril) 4 times daily for 30 days): about 15% | tinnitus volume (fourth patient, dose raised on occasions to 5 times daily): diminished tinnitus volume | relief of tinnitus (general statement, lower amounts of oxytocin (under 20 IU per day)): did not result in any significant relief | time patient remains improved (second patient, 45 IU twice daily): more than a year | benefit (third patient, tinnitus caused by a drug, 30 IU twice daily): without benefit | decrease in tinnitus volume (third patient, tinnitus caused by a drug, 45 IU 4 times daily): approximately 30%
